How the values were obtained:
HL60 cells [1] = experiment: Annexin V / PI apoptosis assay; type: cell-based; conditions: 1 μM or 5 μM, 48 h, annexin V and propidium iodide, flow cytometry
HL60 = experiment: Combinatorial drug screening with decitabine, HL60; type: cell-based; conditions: combination with decitabine, HL60, 72 h co-treatment
leukemia cell lines = type: cell-based; conditions: broad range of leukemia cell lines from therapy refractory subgroups; two healthy human fibroblast controls; values in Supplementary Table S1
HAL01 = experiment: Combinatorial drug screening with decitabine, HAL01; type: cell-based; conditions: combination with decitabine, HAL01, 72 h co-treatment
Jurkat = experiment: Combinatorial drug screening with decitabine, Jurkat; type: cell-based; conditions: combination with decitabine, 72 h co-treatment
HL60 cells [2] = experiment: Immunoblotting of acetyl-α-tubulin and acetyl-histone H3; type: cell-based; conditions: 24 h; for acetylation of histone 3 (Ac-H3) / acetylation of α-tubulin: IC12.5-IC75 concentrations (ricolinostat at its IC50)
MOLM13 = experiment: Combinatorial drug screening with decitabine, MOLM13; type: cell-based; conditions: combination with decitabine, MOLM13, 72 h co-treatment
human HDAC6 = target: T1, human HDAC6 (Homo sapiens, UniProt Q9UBN7); experiment: HDAC6 inhibition assay; type: biochemical; conditions: selectivity index HDAC1/6
T1 sequence (Q9UBN7 1-1215): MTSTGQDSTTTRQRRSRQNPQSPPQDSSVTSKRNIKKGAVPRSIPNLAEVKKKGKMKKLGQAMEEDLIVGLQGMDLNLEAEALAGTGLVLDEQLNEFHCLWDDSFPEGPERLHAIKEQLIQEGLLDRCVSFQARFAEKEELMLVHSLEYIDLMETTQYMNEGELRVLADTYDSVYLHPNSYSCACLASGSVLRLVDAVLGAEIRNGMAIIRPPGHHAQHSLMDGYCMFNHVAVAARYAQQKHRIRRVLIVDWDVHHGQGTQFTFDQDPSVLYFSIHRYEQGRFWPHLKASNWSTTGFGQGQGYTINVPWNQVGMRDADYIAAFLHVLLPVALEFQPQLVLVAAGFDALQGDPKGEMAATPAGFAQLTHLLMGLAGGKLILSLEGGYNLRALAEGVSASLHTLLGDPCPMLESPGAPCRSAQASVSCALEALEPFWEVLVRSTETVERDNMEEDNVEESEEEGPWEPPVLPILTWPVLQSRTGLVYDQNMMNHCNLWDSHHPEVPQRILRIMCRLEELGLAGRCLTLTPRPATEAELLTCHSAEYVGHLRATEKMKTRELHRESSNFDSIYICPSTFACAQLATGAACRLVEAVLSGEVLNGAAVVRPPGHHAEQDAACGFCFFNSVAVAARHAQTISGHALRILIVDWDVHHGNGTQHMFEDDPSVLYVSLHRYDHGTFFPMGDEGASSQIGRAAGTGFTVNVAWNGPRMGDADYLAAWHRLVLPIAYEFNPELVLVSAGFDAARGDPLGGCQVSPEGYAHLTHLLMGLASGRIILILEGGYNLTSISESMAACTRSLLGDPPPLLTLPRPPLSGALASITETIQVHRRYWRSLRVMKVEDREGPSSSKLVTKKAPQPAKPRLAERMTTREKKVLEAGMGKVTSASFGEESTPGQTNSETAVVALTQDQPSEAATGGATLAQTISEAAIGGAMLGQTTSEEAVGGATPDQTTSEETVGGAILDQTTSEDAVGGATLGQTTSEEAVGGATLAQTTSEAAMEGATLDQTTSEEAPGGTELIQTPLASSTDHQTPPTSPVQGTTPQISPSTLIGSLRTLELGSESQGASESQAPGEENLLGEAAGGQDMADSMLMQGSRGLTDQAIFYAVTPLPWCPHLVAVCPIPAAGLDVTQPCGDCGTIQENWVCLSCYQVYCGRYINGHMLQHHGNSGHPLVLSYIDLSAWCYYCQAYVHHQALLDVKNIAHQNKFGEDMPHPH

HDAC1 = conditions: read-out: HDAC1 IC50; Sandrone et al., different substrates; ref [47]; cited from earlier work
HDAC6 = conditions: ref [47], cited from earlier work; for IC50: read-out: HDAC6 IC50, Sandrone et al., different substrates; for SI (IC50 (HDAC1)/IC50 (HDAC6)): selectivity index HDAC1/6, Sandrone et al.
HDAC4 = HDAC4 (Homo sapiens, UniProt P56524); experiment: HDAC4 inhibition assay; type: biochemical
Sequence of HDAC4 (P56524 627-1084 limits assumed): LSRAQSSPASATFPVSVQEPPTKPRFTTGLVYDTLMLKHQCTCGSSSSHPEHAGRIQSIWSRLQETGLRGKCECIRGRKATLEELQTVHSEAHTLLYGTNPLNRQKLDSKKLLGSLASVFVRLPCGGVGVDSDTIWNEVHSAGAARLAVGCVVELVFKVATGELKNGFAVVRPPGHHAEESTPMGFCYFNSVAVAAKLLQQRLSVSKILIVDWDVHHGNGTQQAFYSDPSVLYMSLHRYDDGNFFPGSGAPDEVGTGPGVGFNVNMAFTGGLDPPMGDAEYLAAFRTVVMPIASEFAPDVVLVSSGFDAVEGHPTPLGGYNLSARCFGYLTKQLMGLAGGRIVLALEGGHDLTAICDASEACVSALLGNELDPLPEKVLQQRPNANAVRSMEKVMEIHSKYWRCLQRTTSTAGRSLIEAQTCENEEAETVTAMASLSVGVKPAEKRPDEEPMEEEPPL

With `CN(C)c1ccc(C(=O)N(CC(=O)NCc2ccccc2)Cc2ccc(C(=O)NO)cc2F)cc1` [Compound 10h, 4-({N-[(Benzylcarbamoyl)methyl]-1-[4-(dimethylamino)phenyl]formamido}methyl)-3-fluoro-N-hydroxybenzamide] the induction of apoptosis (HL60 cells [1]) was “significant (p < 0.0001) increase in apoptotic cells”, the ZIP synergy score (HL60) was 25.08 and the “cellular viability of leukemia cell lines” value (leukemia cell lines) was “markedly outperformed CI994 and ricolinostat”. The ZIP synergy score (HAL01) was 1.18, the ZIP synergy score (Jurkat) was −0.87 and the “acetylation of histone 3 (Ac-H3)” value (HL60 cells [2]) was “dose-dependent increase”. The “acetylation of α-tubulin” value (HL60 cells [2]) was “dose-dependent increase”, the “acetylation of H3 on co-administration with decitabine” value (HL60 cells [2]; combination with decitabine vs mono-treatment) was “strong induction of acetylation of H3 as compared to mono-treatment” and the ZIP synergy score (MOLM13) was 27.44.
With `O=C(CCCCCCNC(=O)c1cnc(N(c2ccccc2)c2ccccc2)nc1)NO` [Ricolinostat, ricolinostat, reference compound] the “acetylation of histone 3 (Ac-H3)” value (HL60 cells [2]) was “lower Ac-H3 levels than observed for 10h” and the “acetylation of α-tubulin” value (HL60 cells [2]) was “prominent acetylation of α-tubulin”.
In the case of `Cc1cc(C)cc(C(=O)N(CC(=O)NCc2ccccc2)Cc2ccc(C(=O)NO)cc2F)c1` [Compound 10g, 4-({N-[(Benzylcarbamoyl)methyl]-1-(3,5-dimethylphenyl)formamido}methyl)-3-fluoro-N-hydroxybenzamide], the “SI (IC50 (HDAC1)/IC50 (HDAC6))” value (human HDAC6) is reported as 6–24.
For `O=C(NO)c1cccc(F)c1` [3-fluoro-N-hydroxybenzamide], the IC50 (HDAC1) is given as 29.4 µM, the IC50 (HDAC6) is given as 453 nM and the “SI (IC50 (HDAC1)/IC50 (HDAC6))” value (HDAC6) is given as 65.
With `CN(C)c1ccc(C(=O)N(CC(=O)NCc2ccccc2)Cc2ccc(C(=O)NO)cc2)cc1` [DDK137] the IC50 (HDAC4) was 2670 nM.
In the case of `CC(C)c1ccccc1C(=O)N(CC(=O)NC(C)(C)C)Cc1ccc(C(=O)NO)cc1F` [Compound 10p, 4-({N-[(tert-Butylcarbamoyl)methyl]-1-[2-(propan-2-yl)phenyl]formamido}methyl)-3-fluoro-N-hydroxybenzamide], the induction of apoptosis (HL60 cells [1]) is reported as “weaker (in comparison to 10h) although significant (p < 0.05) apoptosis induction”, the ZIP synergy score (HL60) is reported as 7.78 and the “cellular viability of leukemia cell lines” value (leukemia cell lines) is reported as “IC50 values ranging in the high micromolar concentration”. The “acetylation of histone 3 (Ac-H3)” value (HL60 cells [2]) was “no effect on Ac-H3 levels”, the “acetylation of α-tubulin” value (HL60 cells [2]) was “induced acetylation of α-tubulin” and the ZIP synergy score (MOLM13) was 7.18.
In the case of `O=C(NO)c1ccccc1` [N-hydroxybenzamide], the IC50 (HDAC1) is listed as 25.4 µM, the IC50 (HDAC6) is listed as 1340 nM and the “SI (IC50 (HDAC1)/IC50 (HDAC6))” value (HDAC6) is listed as 19.
